Measurements published in article PMC4298654, “In vivo formation of N-acyl-fumonisin B1” (Mycotoxin Research, 2014).

Test: In vivo formation of NAFB1 and NAHFB1 in rat kidney and liver (HPLC-ESI-MS/MS)
Design: N-acyl-derivative in tissue sample, analysis a / N-acyl-derivative in tissue sample, analysis b / N-acyl-derivative in tissue sample, mean: unit not given here
Conditions: 5 days
Text: The study protocol was approved by the Institutional Animal Care and Use Committee, Richard B. Russell Agricultural Research Center, Athens, GA. Male Sprague–Dawley rats (Harlan Industries, Indianapolis, IN, USA), 7 weeks of age at receipt, were individually housed in stainless steel, wire mesh cages in an environmentally controlled room having a 12-h light/dark cycle. Food (2019 Global Rodent Diet, Teklad, Madison, WI, USA) and fresh tap water were provided ad libitum. After a 1 week acclimation period, the animals were randomly assigned to five groups (n = 2/group) having mean weights of 215 to 216 g (weight range of all animals, 211 to 220 g). For five consecutive days, they were observed, weighed, and given an intraperitoneal injection (ip) of 0 (vehicle), 0.5, 1.0, or 2.0 mg/kg body weight FB1 (provided by R. Eppley, US FDA), 1.0 mg/kg body weight HFB1 (positive control) (Voss et al. [2009]), or vehicle (0.9 % physiological saline). These doses corresponded to 0.69, 1.38, and 2.77 μmol FB1/kg body weight and 2.47 μmol/kg body weight HFB1 per day. In order to compare the effects of FB1 and HFB1, dosages will be expressed as molar concentrations and, on this basis, the high dose of FB1 is roughly equivalent to that of the positive control dose of HFB1. Dosing solutions were sterile filtered and administered at a volume rate of 10 ml/kg body weight. The animals were fasted overnight prior to administration of the final dose. The rats were euthanized (CO2 inhalation and exsanguination) 60 to 90 min following the final dose administration and examined by necropsy. The kidney and liver specimens were fixed in 10 % neutral buffered formalin, processed, and microscopically evaluated without knowledge of the animal’s identity or treatment group. Three representative liver and kidney specimens (100 mg each) were also collected, immediately frozen, and stored (−80 °C) until processed, at which time the tissues were thawed and homogenized in distilled/deionized water (1 ml water/100 mg tissue). The homogenates were lyophilized before they were shipped by overnight courier for the analysis of fumonisin metabolites and sphingolipids.
Lyophilized liver and kidney tissues (100 mg wet weight equivalents) were processed for the quantification of FB1, HFB1, NAFB1, NAHFB1, and sphingolipids. Preparation of the tissue samples was performed according to a previously published method (Harrer et al. [2013]). For the quantification of FB1 and HFB1, a d6-labeled derivative of FB1 (FB1-d6) was used as the internal standard. Synthetic derivatives with a heptadecanoic fatty acid (C17:0) residue were used as internal standards for the quantification of N-acyl-fumonisins and ceramides (N-C17:0-FB1, N-C17:0-HFB1, and N-C17:0-ceramide). The sphingoid bases and their phosphate derivatives were quantified using synthetic derivatives with a C17-acyl-backbone: sphingosine (C17:1), sphingosine-1-phosphate (C17:1), sphinganine (C17:0), sphinganine-1-phosphate (C17:0) as internal standards. The standards were dissolved in methanol:chloroform (2:1, v/v) and then mixed with the tissue samples. The samples spiked with internal standard were kept at room temperature for 30 min before being processed further. The internal standard-spiked samples were first extracted with ethyl acetate, isopropanol, and water (60:30:10, v/v/v) and a second time using methanol, chloroform, and water (60:30:10, v/v/v). The extracts were combined, the solvents removed by evaporation, and the dried samples stored at−80 °C till analyzed.
For the analysis, the samples were reconstituted in a mixture of water, methanol, and tetrahydrofurane (60:24:16, v/v/v). The NAFB1 and NAHFB1 derivatives having the following fatty acyl chain lengths were quantified by HPLC-MS/MS: C16:0, C18:0, C20:0, C22:0, C24:0, C26:0. Furthermore, we also quantified the unsaturated derivatives C24:1 and C26:1. The results are given as the sum of all N-acyl derivatives of FB1 or HFB1. […]

[1] = Kidney, treatment FB1 0,5 mg/kg BW ip
[2] = Kidney, treatment FB1 1 mg/kg BW ip
[3] = Kidney, treatment FB1 2 mg/kg BW ip
[4] = Kidney, treatment HFB1 1 mg/kg BW ip
[5] = Liver, treatment FB1 0,5 mg/kg BW ip
[6] = Liver, treatment FB1 1 mg/kg BW ip
[7] = Liver, treatment FB1 2 mg/kg BW ip
[8] = Liver, treatment HFB1 1 mg/kg BW ip

With `CCCCCCCC/C=C\CCCCCCCCCCCCCC(=O)N[C@@H](C)[C@@H](O)C[C@H](O)CCCC[C@@H](O)C[C@H](C)C[C@H](O)[C@H](O)[C@H](C)CCCC` [HFB1C24:1] the “N-acyl-derivative in tissue sample, analysis a” value (“N-acyl-derivative … analysis a” below) [1] was 0,0, the “N-acyl-derivative in tissue sample, analysis b” value (from here on “N-acyl-derivative … analysis b”) [1] was 0,0 and the “N-acyl-derivative in tissue sample, mean” value [1] was 0,0. The “N-acyl-derivative … analysis a” value [2] was 0,4, the “N-acyl-derivative … analysis b” value [2] was 0,0 and the “N-acyl-derivative in tissue sample, mean” value [2] was 0,2. The “N-acyl-derivative … analysis a” value [3] was 0,1, the “N-acyl-derivative … analysis b” value [3] was 0,0 and the “N-acyl-derivative in tissue sample, mean” value [3] was 0,0. The “N-acyl-derivative … analysis a” value [4] was 7,9, the “N-acyl-derivative … analysis b” value [4] was 10,8 and the “N-acyl-derivative in tissue sample, mean” value [4] was 9,3. For the same compound, the “N-acyl-derivative … analysis a” value [5] was 0,0, the “N-acyl-derivative … analysis b” value [5] was 0,0 and the “N-acyl-derivative in tissue sample, mean” value [5] was 0,0. The “N-acyl-derivative … analysis a” value [6] was 0,0, the “N-acyl-derivative … analysis b” value [6] was 0,1 and the “N-acyl-derivative in tissue sample, mean” value [6] was 0,1. For the same compound, the “N-acyl-derivative … analysis a” value [7] was 0,4, the “N-acyl-derivative … analysis b” value [7] was 0,0 and the “N-acyl-derivative in tissue sample, mean” value [7] was 0,2. For the same compound, the “N-acyl-derivative … analysis a” value [8] was 156,0, the “N-acyl-derivative … analysis b” value [8] was 140,5 and the “N-acyl-derivative in tissue sample, mean” value [8] was 148,3.
With `CCCCCCCCCCCCCCCCCCCCCCCC(=O)N[C@@H](C)[C@@H](O)C[C@H](O)CCCC[C@@H](O)C[C@H](C)C[C@H](O)[C@H](O)[C@H](C)CCCC` [HFB1C24:0] the “N-acyl-derivative … analysis a” value [2] was 0,0, the “N-acyl-derivative … analysis b” value [2] was 0,0 and the “N-acyl-derivative in tissue sample, mean” value [2] was 0,0. For the same compound, the “N-acyl-derivative … analysis a” value [3] was 0,0, the “N-acyl-derivative … analysis b” value [3] was 0,0 and the “N-acyl-derivative in tissue sample, mean” value [3] was 0,0. The “N-acyl-derivative … analysis a” value [4] was 3,0, the “N-acyl-derivative … analysis b” value [4] was 2,7 and the “N-acyl-derivative in tissue sample, mean” value [4] was 2,9. The “N-acyl-derivative … analysis a” value [5] was 0,0, the “N-acyl-derivative … analysis b” value [5] was 0,0 and the “N-acyl-derivative in tissue sample, mean” value [5] was 0,0. For the same compound, the “N-acyl-derivative … analysis a” value [6] was 0,0, the “N-acyl-derivative … analysis b” value [6] was 0,0 and the “N-acyl-derivative in tissue sample, mean” value [6] was 0,0. The “N-acyl-derivative … analysis a” value [7] was 0,0, the “N-acyl-derivative … analysis b” value [7] was 0,0 and the “N-acyl-derivative in tissue sample, mean” value [7] was 0,0. The “N-acyl-derivative … analysis a” value [8] was 25,0, the “N-acyl-derivative … analysis b” value [8] was 23,5 and the “N-acyl-derivative in tissue sample, mean” value [8] was 24,2.
In the case of `CCCCCCCCCCCCCCCCCCCC(=O)N[C@@H](C)[C@@H](O)C[C@H](O)CCCC[C@@H](O)C[C@H](C)C[C@H](O)[C@H](O)[C@H](C)CCCC` [HFB1C20:0], the “N-acyl-derivative … analysis a” value [1] is reported as 0,0, the “N-acyl-derivative … analysis b” value [1] is reported as 0,0 and the “N-acyl-derivative in tissue sample, mean” value [1] is reported as 0,0. The “N-acyl-derivative … analysis a” value [2] was 0,0, the “N-acyl-derivative … analysis b” value [2] was 0,1 and the “N-acyl-derivative in tissue sample, mean” value [2] was 0,1. For the same compound, the “N-acyl-derivative … analysis a” value [3] was 0,0, the “N-acyl-derivative … analysis b” value [3] was 0,0 and the “N-acyl-derivative in tissue sample, mean” value [3] was 0,0. The “N-acyl-derivative … analysis a” value [4] was 3,1, the “N-acyl-derivative … analysis b” value [4] was 0,6 and the “N-acyl-derivative in tissue sample, mean” value [4] was 1,8. For the same compound, the “N-acyl-derivative … analysis a” value [5] was 0,0, the “N-acyl-derivative … analysis b” value [5] was 0,2 and the “N-acyl-derivative in tissue sample, mean” value [5] was 0,1. The “N-acyl-derivative … analysis a” value [6] was 0,2, the “N-acyl-derivative … analysis b” value [6] was 0,1 and the “N-acyl-derivative in tissue sample, mean” value [6] was 0,2. For the same compound, the “N-acyl-derivative … analysis a” value [7] was 0,0, the “N-acyl-derivative … analysis b” value [7] was 0,0 and the “N-acyl-derivative in tissue sample, mean” value [7] was 0,0. For the same compound, the “N-acyl-derivative … analysis a” value [8] was 8,9, the “N-acyl-derivative … analysis b” value [8] was 13,1 and the “N-acyl-derivative in tissue sample, mean” value [8] was 11,0.
